# Laboratory results: patent US4755594A, “N^6 -substituted adenosines” (Warner-Lambert Company, priority 1986, dated 1988)
# Experiments:
# adenosine A1 receptor = target: T1, adenosine A1 receptor (Rattus norvegicus, UniProt P25099); assay: Adenosine Receptor Binding--A1 Receptor Affinity (RBA1), [3H]-CHA, whole brain membranes; details: read-out: RBA-1 IC50
# T1 construct: Whole brain minus cerebellum and brainstem from male Long-Evans rats; from tissue; host or cells: whole brain minus cerebellum and brainstem, male Long-Evans rats
# T1 sequence (P25099 1-326): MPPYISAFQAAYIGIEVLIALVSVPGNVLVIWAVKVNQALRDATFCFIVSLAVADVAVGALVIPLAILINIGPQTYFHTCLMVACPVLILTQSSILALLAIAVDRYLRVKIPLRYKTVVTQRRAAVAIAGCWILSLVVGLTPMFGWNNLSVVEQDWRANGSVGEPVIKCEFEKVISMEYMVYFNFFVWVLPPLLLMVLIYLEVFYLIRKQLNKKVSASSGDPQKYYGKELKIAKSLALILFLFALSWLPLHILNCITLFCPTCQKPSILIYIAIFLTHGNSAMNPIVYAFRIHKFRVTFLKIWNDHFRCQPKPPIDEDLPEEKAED
# Method: Adenosine Receptor Binding--A1 Receptor Affinity (RBA1 )
# Whole brain minus cerebellum and brainstem from male Long-Evans rats (150-200 g) was homogenized in 30 volumes of ice-cold 0.05M Tris-HCl buffer pH 7.7 using a Brinkman Polytron PT-10, (setting number 6 for 20 seconds) and centrifuged for ten minutes at 20,000 xg (Sorvall RC-2), 4° C. The supernatant was discarded, and the pellet was resuspended and centrifuged as before. The pellet was resuspended in 20 ml Tris-HCl buffer containing two International Units/ml of adenosine deaminase (Sigma type III from calf intestinal mucosa), incubated at 37° C. for 30 minutes, then subsequently at 0° C. for ten minutes. The homogenate was again centrifuged, and the final pellet was resuspended in ice-cold 0.05M Tris-HCl buffer pH 7.7 to a concentration of 20 mg/ml original wet tissue weight and used immediately.
# Tissue homogenate (10 mg/ml) was incubated in 0.05M Tris-HCl buffer pH 7.7 containing 1.0 nM [^3 H]--N^6 -cyclohexyladenosine ([^3 H]--CHA) with or without test agents in triplicate for one hour at 25° C. Incubation volume was 2 ml. Unbound [^3 H]--CHA was separated by rapid filtration under reduced pressure through Whatman glass fiber (GF/B) filters. The filters were rinsed three times with 5 ml of ice cold 0.05M Tris-HCl buffer pH 7.7. The radio-labeled ligand retained on the filter was measured by liquid scintillation spectrophotometry after shaking the filters for one hour or longer on a mechanical shaker in 10 ml of Beckman Ready-Solv HP scintillation cocktail.
# Nonspecific binding was defined as the binding which occurred in the presence of 1 mM theophylline. The concentration of test agent which inhibited 50% of the specific binding (IC50) was determined by nonlinear computer curve fit. The Scatchard plot was calculated by linear regression of the line obtained by plotting the amount of radioligand bound (pmoles/gram of tissue) [formula] Since the amount of radioligand bound was a small fraction of the total amount added, free radioligand was defined as the concentration of (nM) of radioligand added to the incubation mixture. The Hill coefficient was calculated by linear regression of the line obtained by plotting the log of the bound radioligand vs the log of the [formula] The maximal number of binding sites (Bmax) was calculated from the Scatchard plot.
# adenosine A2 receptor = target: T2, adenosine A2 receptor (Rattus norvegicus, UniProt P30543); assay: Adenosine Receptor Binding--A2 Receptor Affinity (RBA2), [3H]NECA, striatal membranes; details: read-out: RBA-2 IC50
# T2 construct: Brains were thawed and then kept on ice while the striata were dissected out; tissue Pel-Freez (Rogers, Ark.); host or cells: striata of Sprague-Dawley rats (Long-Evans hooded rats gave essentially identical results)
# Method: Adenosine Receptor Binding--A2 Receptor Affinity (RBA2)
# Brains from 200-500 g mixed sex Sprague-Dawley rats were purchased from Pel-Freez (Rogers, Ark.). Fresh brains from male Long-Evans hooded rats (Blue Spruce Farms, Altamont, NY) gave essentially identical results. Brains were thawed and then kept on ice while the striata were dissected out. Striata were disrupted in 10 vol of ice-cold 50 mM Tris.HCl (pH 7.7 at 25° C., pH 8.26 at 5° C.) (Tris) for 30 seconds in a Polytron PT-10 (Brinkmann) at setting 5. The suspension was centrifuged at 50,000 xg for ten minutes, the supernatant discarded, the pellet resuspended in 10 vol ice-cold Tris as above, recentrifuged, resuspended at 1 g/5ml, and stored in plastic vials at -70° C. (stable for at least six months). When needed, tissue was thawed at room temperature, disrupted in a Polytron, and kept on ice until used.
# All incubations were for 60 minutes at 25° C. in 12×75 mm glass tubes containing 1 ml Tris with 5 mg original tissue weight of rat weight of rat striatal membranes, 4 nM [^3 H]--N-ethyl adenosine-5'-carboxamide ([^3 H]NECA), 50 nM N^6 -cyclopentyladenosine (to eliminate A1 receptor binding), 10 mM MgCl2, 0.1 units/ml of adenosine deaminase and 1% dimethylsulfoxide. N^6 -Cyclopentyladenosine was dissolved at 10 mM in 0.02N HCl and diluted in Tris. Stock solutions and dilutions of N^6 -cyclopentyladenosine could be stored at -20° C. for several months. Test compounds were dissolved at 10 mM in dimethylsulfoxide on the same day as the experiment, and diluted in dimethylsulfoxide to 100×the final incubation concentration. Control incubations received an equal volume (10 μl) of dimethylsulfoxide; the resulting concentration of dimethylsulfoxide had no effect on binding. [^3 H]NECA was diluted to 40 nM in Tris. The membrane suspension (5 mg/0.79 ml) contained sufficient MgCl2 and adenosine deaminase to give 10 mM and 0.1 units/ml, respectively, final concentration in the incubation. […] After all additions, the rack of tubes was vortexed, and the tubes were then incubated for 60 min at 25° C. in a shaking water bath. The rack of tubes was vortexed an additional time halfway through the incubation.
# Incubations were terminated by filtration through 2.4 cm GF/B filters under reduced pressure. Each tube was filtered as follows: the contents of the tube were poured on the filter, 4 ml of ice-cold Tris were added to the tube and the contents poured onto the filter, and the filter was washed twice with 4 ml of ice-cold Tris. The filtration was complete in about twelve seconds. Filters were put in scintillation vials, 8 ml of Formula 947 scintillation fluid added, and the vials left overnight, shaken, and counted in a liquid scintillation counter at 40% efficiency.
# Nonspecific binding was defined as binding in the presence of 100 μM N^6 -cyclopentyladenosine, and specific binding was defined as total binding minus nonspecific binding. The IC50 was calculated by weighted nonlinear least squares curve-fitting to the mass-action equation. [formula] where Y is cpm bound
# T is cpm total binding without drug
# S is cpm specific binding without drug
# D is the concentration of drug and
# K is the IC50 of the drug
# Weighting factors were calculated under the assumption that the standard deviation was proportional to the predicted value of Y. Nonspecific binding was treated as a very large (infinite) concentration of drug in the computer analysis.
# [1] = Activity and screen test, rat orally: inhibition of motor activity; assay type: in vivo; details: orally (PO)
# [2] = Activity and screen test, rat orally: screen test; assay type: in vivo; details: orally (PO)
# Method: A two part testing procedure is started one hour postinjection. First, the screen test (ST) is performed (see Pharmac. Biochem. Behav. 6, 351-353, 1977). Briefly this test consists of placing mice on individual wire screens which are then rotated 180 degrees at the start of a 60 second observation period. The number of mice falling off the inverted screen is recorded.
# The data obtained from the screen test are expressed as percent of mice falling off the screen. Data derived from locomotor activity of drug treated mice are compared to the activity of vehicle treated animals and are expressed as percent inhibition of spontaneous locomotion. All percentages reported for inhibition of locomotion (LI) are based upon data accumulated for one hour. Both phases of testing are graded: A=60-100%; C=31-59%; and N=0-30%. An overall dose rating is obtained by the following criteria: […]
# T2 sequence (P30543 whole entry): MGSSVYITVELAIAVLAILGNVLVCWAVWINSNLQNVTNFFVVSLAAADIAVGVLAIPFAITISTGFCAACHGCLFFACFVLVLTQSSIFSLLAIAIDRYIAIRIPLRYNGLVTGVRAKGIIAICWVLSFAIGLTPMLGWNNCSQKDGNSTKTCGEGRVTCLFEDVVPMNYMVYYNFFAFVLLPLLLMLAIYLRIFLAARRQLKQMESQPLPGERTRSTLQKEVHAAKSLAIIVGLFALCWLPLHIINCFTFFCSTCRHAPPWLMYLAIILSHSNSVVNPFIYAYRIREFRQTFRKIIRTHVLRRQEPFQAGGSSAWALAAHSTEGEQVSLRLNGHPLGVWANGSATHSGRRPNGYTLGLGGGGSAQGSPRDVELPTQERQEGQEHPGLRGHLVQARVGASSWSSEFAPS
compound,measurement,setting,value
"[O-][n+]1cnc2c(ncn2[C@@H]2O[C@H](CO)[C@@H](O)[C@H]2O)c1NCC1(c2ccccc2)CC1 [Example 4, N6-((1-Phenylcyclopropyl)methyl)adenosine-N1-oxide]",IC50,adenosine A1 receptor,6.5 µM
same,IC50,adenosine A2 receptor,35 µM
same,Inhibition of motor activity,[1]; 1 mg/kg,2%
same,Inhibition of motor activity,[1]; 3 mg/kg,15%
same,Inhibition of motor activity,[1]; 10 mg/kg,2%
same,Inhibition of screen test failure,[2]; 1 mg/kg,11%
same,Inhibition of screen test failure,[2]; 3 mg/kg,0%
same,Inhibition of screen test failure,[2]; 10 mg/kg,0%
